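Briefly, cells in 96-well plates were exposed to five compound concentrations for 48 h, and endpoints were estimated by linear interpolation. At the GI50, growth is halved.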 The source made the active and inactive calls. Rule as the data show it: active = GI50 up to about 1.1 µM and inactive = higher.
Tests used:
Experiment in all cases: DTP human tumour cell line panel, 48 h
SW-620 = test system: SW-620
Malme-3M = test system: Malme-3M
IGROV-1 = test system: IGROV-1
ACHN = test system: ACHN
SK-MEL-2 = test system: SK-MEL-2
M14 = test system: M14
OVCAR-5 = test system: OVCAR-5
KM12 = test system: KM12
HCT-116 = test system: HCT-116
HT-29 = test system: HT-29
SK-MEL-28 = test system: SK-MEL-28
CCRF-CEM = test system: CCRF-CEM
RXF 393 = test system: RXF 393
HL-60 = test system: HL-60
HCC 2998 = test system: HCC 2998

SMILES	GI50 (SW-620)	GI50 (Malme-3M)	GI50 (IGROV-1)	GI50 (ACHN)	GI50 (SK-MEL-2)	GI50 (M14)	GI50 (OVCAR-5)	GI50 (KM12)	GI50 (HCT-116)	GI50 (HT-29)	GI50 (SK-MEL-28)	GI50 (CCRF-CEM)	GI50 (RXF 393)	GI50 (HL-60)	GI50 (HCC 2998)
COc1ccccc1/C=C(\NC(=O)c1ccccc1)c1nc2ccccc2[nH]1	47 µM (inactive)	95.7 µM (inactive)	32.8 µM (inactive)	36.6 µM (inactive)	27.4 µM (inactive)	39.8 µM (inactive)	> 100 µM (inactive)	32.6 µM (inactive)	34 µM (inactive)	44.1 µM (inactive)	36.9 µM (inactive)	40.6 µM (inactive)	76.6 µM (inactive)		
Oc1cc2c(cc1O)-c1[nH]ncc1CC2	35.4 µM (inactive)	59.8 µM (inactive)	31.6 µM (inactive)	21.6 µM (inactive)	64.9 µM (inactive)	72.4 µM (inactive)	63.4 µM (inactive)	49.5 µM (inactive)	51.1 µM (inactive)	37.6 µM (inactive)	58.3 µM (inactive)	11.4 µM (inactive)		24.3 µM (inactive)	22.4 µM (inactive)
O=C(Nc1nc2ncn(CCI)c2c(=O)[nH]1)c1ccccc1	> 100 µM (inactive)	> 100 µM (inactive)	> 100 µM (inactive)	> 75 µM (inactive)	> 53.5 µM (inactive)	> 100 µM (inactive)	> 100 µM (inactive)	> 100 µM (inactive)	> 100 µM (inactive)	> 100 µM (inactive)	> 100 µM (inactive)	> 100 µM (inactive)	26.9 µM (inactive)	> 100 µM (inactive)	> 100 µM (inactive)
OC1(C(Sc2ccccc2)Sc2ccccc2)CCCCCC1	26.2 µM (inactive)			26 µM (inactive)	18.1 µM (inactive)	18.7 µM (inactive)		34.9 µM (inactive)	27.8 µM (inactive)		56.1 µM (inactive)	25.2 µM (inactive)	> 10 µM (inactive)	24 µM (inactive)	
CCc1cccc(C(C)C)c1NC(=O)CCl	> 100 µM (inactive)	> 100 µM (inactive)	> 100 µM (inactive)	90.2 µM (inactive)	> 100 µM (inactive)	46.3 µM (inactive)		> 100 µM (inactive)	> 100 µM (inactive)	> 100 µM (inactive)	> 100 µM (inactive)	37.1 µM (inactive)		22.4 µM (inactive)	
CC(CCC[C@H](C)CO)[C@H]1[C@@H](O)C(O)C2[C@@H]3C[C@@H](O)C4(O)C[C@@H](O)CC[C@]4(C)C3CC[C@@]21C (some centres not stated)	> 100 µM (inactive)	> 100 µM (inactive)	> 100 µM (inactive)	> 100 µM (inactive)	> 100 µM (inactive)	> 100 µM (inactive)		> 100 µM (inactive)	> 100 µM (inactive)	> 100 µM (inactive)	> 100 µM (inactive)	40.9 µM (inactive)	> 100 µM (inactive)	44.9 µM (inactive)	> 100 µM (inactive)
CC(=O)OC1CCC2C(=CCC3C2(C)C(=O)CC2(C)C(C4(C)OC(C(C)C)=CC4=O)C(O)CC32C)C1(C)C (configuration not stated)	41 µM (inactive)	21.5 µM (inactive)	62.4 µM (inactive)	40.7 µM (inactive)	27.1 µM (inactive)	23.3 µM (inactive)	> 100 µM (inactive)	> 10 µM (inactive)	> 10 µM (inactive)	17.8 µM (inactive)		31 µM (inactive)			
c1ccc(C(c2ccccc2)c2ccncc2)cc1	> 100 µM (inactive)	> 100 µM (inactive)	> 100 µM (inactive)	> 100 µM (inactive)	> 100 µM (inactive)	> 100 µM (inactive)	> 100 µM (inactive)	> 100 µM (inactive)	> 100 µM (inactive)	75.9 µM (inactive)	> 100 µM (inactive)	> 100 µM (inactive)			61.7 µM (inactive)
CC(C)(C)c1ccc(OCCOCCOc2ccc(C(C)(C)C)cc2S(=O)(=O)Nc2ccc([N+](=O)[O-])cc2)c(S(=O)(=O)Nc2ccc([N+](=O)[O-])cc2)c1	61.8 µM (inactive)	83.9 µM (inactive)	12.7 µM (inactive)	7.13 µM (inactive)	8.07 µM (inactive)	8.28 µM (inactive)	> 100 µM (inactive)	7.53 µM (inactive)	4.86 µM (inactive)	7.38 µM (inactive)	15.5 µM (inactive)	5.42 µM (inactive)	19.2 µM (inactive)	5.58 µM (inactive)	8.73 µM (inactive)
CCCCc1c2c(nc3c1CCc1cc(C=O)c(N)nc1-3)/C(=C/c1ccccc1)CCC2	> 100 µM (inactive)	> 100 µM (inactive)	> 100 µM (inactive)	> 100 µM (inactive)	> 100 µM (inactive)	> 100 µM (inactive)	> 100 µM (inactive)	> 100 µM (inactive)	> 100 µM (inactive)	> 100 µM (inactive)	> 100 µM (inactive)	> 100 µM (inactive)	> 100 µM (inactive)	63.1 µM (inactive)	29.9 µM (inactive)
CC(=O)OC12C(C)=C(C)C(=O)N1c1ccccc1N2C(C)=O (configuration not stated)	> 100 µM (inactive)		> 100 µM (inactive)	> 100 µM (inactive)	> 100 µM (inactive)	> 100 µM (inactive)	> 100 µM (inactive)	> 100 µM (inactive)	> 100 µM (inactive)	> 100 µM (inactive)	33.4 µM (inactive)	> 100 µM (inactive)	> 100 µM (inactive)	> 100 µM (inactive)	> 100 µM (inactive)
N#CC(C(=O)C(=O)Nc1c(Cl)cccc1Cl)c1ccccc1 (configuration not stated)	> 10 µM (inactive)	> 10 µM (inactive)	> 10 µM (inactive)	> 10 µM (inactive)	> 10 µM (inactive)	> 10 µM (inactive)	0.906 µM (active)	> 10 µM (inactive)	> 10 µM (inactive)	> 10 µM (inactive)	> 10 µM (inactive)	> 10 µM (inactive)	> 10 µM (inactive)	> 10 µM (inactive)	> 10 µM (inactive)
CC(=O)OCSc1ncnc2c1ncn2CN1CCOCC1	28.8 µM (inactive)	24.9 µM (inactive)	52.5 µM (inactive)	33 µM (inactive)	> 100 µM (inactive)	2.25 µM (inactive)	18.5 µM (inactive)	51.1 µM (inactive)	14.4 µM (inactive)	13.9 µM (inactive)	> 100 µM (inactive)	1.98 µM (inactive)	14.8 µM (inactive)	6.22 µM (inactive)	6.46 µM (inactive)
C=CCN1/C(=C2\SC(=S)N(c3ccc(C)cc3)C2=O)Sc2c1ncn(C)c2=O	> 100 µM (inactive)		> 100 µM (inactive)	> 100 µM (inactive)	> 100 µM (inactive)	> 100 µM (inactive)	> 100 µM (inactive)	> 100 µM (inactive)	> 100 µM (inactive)	> 100 µM (inactive)		> 100 µM (inactive)		83.4 µM (inactive)	47.6 µM (inactive)
CC1OC(CC2C=CCc3c(O)c4c(c(O)c32)C(=O)c2ccccc2C4=O)CC(NC(=O)C(F)(F)F)C1O (configuration not stated)	14.3 µM (inactive)	3.12 µM (inactive)	18.9 µM (inactive)	10.9 µM (inactive)	6.87 µM (inactive)	4.29 µM (inactive)	42.8 µM (inactive)	15.9 µM (inactive)	3.13 µM (inactive)	14.4 µM (inactive)	4.55 µM (inactive)	5.11 µM (inactive)	2.52 µM (inactive)	11.8 µM (inactive)	29.4 µM (inactive)
Cc1ccc(-n2cc(/C(N)=N/O)c3ccccc3c2=O)cc1	> 100 µM (inactive)	> 100 µM (inactive)	> 100 µM (inactive)	> 100 µM (inactive)		> 100 µM (inactive)		> 100 µM (inactive)	> 100 µM (inactive)	> 100 µM (inactive)	> 100 µM (inactive)	> 100 µM (inactive)		> 100 µM (inactive)	> 100 µM (inactive)
COc1cc(/C=C/c2ccncc2)cc(OC)c1OC	> 100 µM (inactive)	> 100 µM (inactive)	74.6 µM (inactive)	> 100 µM (inactive)		> 100 µM (inactive)	38.8 µM (inactive)	> 100 µM (inactive)	> 100 µM (inactive)	64.3 µM (inactive)	> 100 µM (inactive)	42.9 µM (inactive)	26.4 µM (inactive)	24.6 µM (inactive)	
CCOC(=O)NC/C=C/CO	> 100 µM (inactive)	> 100 µM (inactive)	> 100 µM (inactive)	> 100 µM (inactive)	> 100 µM (inactive)	> 100 µM (inactive)		> 100 µM (inactive)	> 100 µM (inactive)		> 100 µM (inactive)	> 100 µM (inactive)	> 100 µM (inactive)	> 100 µM (inactive)	> 100 µM (inactive)
CCOC(=O)Cc1nc(/C(C#N)=C/c2ccco2)[nH]c(=O)c1C#N	> 100 µM (inactive)		> 100 µM (inactive)	> 100 µM (inactive)	> 100 µM (inactive)	> 100 µM (inactive)	> 100 µM (inactive)	> 100 µM (inactive)	> 100 µM (inactive)	> 100 µM (inactive)		> 100 µM (inactive)	> 100 µM (inactive)	95.3 µM (inactive)	> 100 µM (inactive)
Cc1cc(C)nc(NS(=O)(=O)c2ccc(Nc3c4ccccc4nc4c(C(=O)Nc5ccc(S(N)(=O)=O)cc5)cccc34)cc2)n1	> 100 µM (inactive)	> 100 µM (inactive)	> 100 µM (inactive)	> 100 µM (inactive)	> 100 µM (inactive)	71.6 µM (inactive)	> 100 µM (inactive)	63.7 µM (inactive)	83.8 µM (inactive)	> 100 µM (inactive)	83.9 µM (inactive)	> 100 µM (inactive)	38 µM (inactive)		

— ChEMBL document CHEMBL1201862, “PubChem BioAssay data set” (2004)
